Consider 4 molecules from patent US6855726B1, “Quinolones as serine protease inhibitors” (Warner-Lambert Company LLC, priority 1998, dated 2005).

For assay [1] the following is noted: rat arteriovenous shunt and venous stasis models; Wong et al. 1996; cited from earlier work.
In assay [2] the target is human trypsin (Homo sapiens, UniProt P07477). In words: Determination of trypsin IC50 (chromogenic substrate S2222). It is filed as biochemical. The method, then: The ability of compounds to act as inhibitors of human trypsin catalytic activity is assessed by determination of that concentration of test substance that inhibits by 50% (IC50) the ability of human trypsin to cleave the chromogenic substrate S2222 (N-Bz-L-Ile-L-Glu-L-Gly-L-Arg-p-nitroanilide. HCl, DiaPharma). Typically, 145 μL human trypsin (0.5 nM final) in 10 mM HEPES, 150 mM NaCl, 0.1% BSA, and 5 μL of the test substance in DMSO (2% final) are incubated for 60 minutes at room temperature. Following preheating to 37° C. for 5 minutes, to this mixture is added 100 μL of S2222 in HBSA buffer (100 μM final), and the velocity of S2222 hydrolysis is determined at 37° C. by measuring the optical density at OD405 nm every 10 seconds over 5 minutes using a ThermoMax® Kinetic Microplate Reader.

In assay [3] the target is T1, human thrombin (Homo sapiens, UniProt P00734).
T1 construct: purchased Enzyme Research Laboratories
Nature of the assay: Determination of thrombin IC50 (chromogenic substrate Chromozym TH). In kind it is biochemical. The method, then: The ability of compounds to act as inhibitors of human thrombin catalytic activity is assessed by determination of that concentration of test substance that inhibits by 50% (IC50) the ability of human thrombin to cleave the chromogenic substrate Chromozym TH (Tosyl-Gly-Pro-Arg-pNA*Ac, Boehringer Mannheim). Typically, 145 μL human thrombin (0.75 nM, Enzyme Research Laboratories) in a HPB buffer (10 mM HEPES, 100 mM NaCl, 0.05% BSA, 0.1% PEG-8000, pH 7.4) and 5 μL of test substance in DMSO (2% final) are incubated for 60 minutes at room temperature. Following preheating to 37° C. for 5 minutes, to this mixture is added 100 μL of Chromozym TH in HPB buffer. The velocity of Chromozym TH hydrolysis is determined at 37° C. by measuring the initial rate of change of the optical density at OD405 nm every 10 seconds for 5 minutes using a ThermoMax® Kinetic Microplate Reader.

The target in assay [4] is T2, human factor Xa (Homo sapiens, UniProt P00742).
T2 construct: human factor Xa (1 nM final, Enzyme Research Laboratories); purchased Enzyme Research Laboratories
Nature of the assay: Determination of factor Xa IC50 (chromogenic substrate S2765). It is filed as biochemical. The method, then: The ability of compounds to act as inhibitors of human factor Xa catalytic activity is assessed by determination of that concentration of test substance that inhibits by 50% (IC50) the ability of human factor Xa to cleave the chromogenic substrate S2765 (N-CBz-D-Arg-L-Gly-L-Arg-p-nitroanilide. 2HCl, DiaPharma). Typically, 145 μL human factor Xa (1 nM final, Enzyme Research Laboratories) in 10 mM HEPES, 150 mM NaCl, 0.1% BSA, pH 7.4 (HBSA buffer) and 5 μL of test substance in DMSO (2% final) are incubated for 60 minutes at room temperature. Following preheating to 37° C. for 5 minutes, to this mixture is added […] of S2765 in HBSA buffer. The velocity of S2765 hydrolysis is determined at 37° C. by measuring the initial rate of change of the optical density at OD405 nm every 10 seconds for 5 minutes using a ThermoMax®D Kinetic Microplate Reader.

The conditions of assay [5]: dog, adjunct to recombinant tissue plasminogen activator; Mellott et al. 1993; cited from earlier work.
The conditions of assay [6]: canine coronary artery, electrolytic lesion model; Lynch et al., Schaffer et al.; cited from earlier work.
The conditions of assay [7]: rabbit venous thrombosis; Fioravanti et al. 1993; cited from earlier work.
For assay [8] the following is noted: various models of arterial and venous thrombosis; Lapatto et al. 1997; cited from earlier work.

Broadly, the IC50 is the concentration that gives 50% inhibition. High values mean weaker potency, low ones greater potency.

T2 sequence (P00742 235-488 limits assumed): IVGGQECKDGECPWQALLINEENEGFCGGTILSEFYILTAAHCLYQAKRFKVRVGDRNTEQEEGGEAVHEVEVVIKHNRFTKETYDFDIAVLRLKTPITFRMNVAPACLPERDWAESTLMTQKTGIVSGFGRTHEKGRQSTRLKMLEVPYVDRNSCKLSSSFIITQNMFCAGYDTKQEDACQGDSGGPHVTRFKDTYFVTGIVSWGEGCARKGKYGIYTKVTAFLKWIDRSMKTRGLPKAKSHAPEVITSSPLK
T2 sequence (P00742 41-179 partner limits assumed): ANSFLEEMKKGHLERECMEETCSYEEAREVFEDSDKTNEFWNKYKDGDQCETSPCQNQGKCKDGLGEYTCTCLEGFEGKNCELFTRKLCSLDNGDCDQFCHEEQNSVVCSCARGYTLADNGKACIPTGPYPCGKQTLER

`CC(=N)N1CC[C@H](Oc2ccc([C@H](Cc3ccc4ccc(C(=N)N)cc4c3)C(=O)O)cc2)C1` [DX9065a]: in assay [1], the “inhibition of thrombus formation” value is “inhibition of thrombus formation was achieved at doses that had little effect on APTT”.

On to `C[C@@H]1CCC[C@H](C)N1CCCCCN1C(=O)C(c2cc(C(=N)N)ccc2O)Cc2ccccc21` (stereo partly drawn) [Example 2, 3-(1-5-[(2R,6S)-2,6-dimethyltetrahydro-1(2H)-pyridinyl]pentyl-2-oxo-1,2,3,4-tetrahydro-3-quinolinyl)-4-hydroxybenzenecarboximidamide], for which the IC50 in assay [2] turned out to be 562 nM; in assay [3], 1140 nM; in assay [4] it was 20 nM.

In the case of “rTAP: recombinant tick anticoagulant peptide, a protein or polypeptide factor Xa inhibitor (YNRLCIKPRDWIDECDSNEGGERAYFRNGKGGCDSFWICPEDHTGADYYSSYRDCFNACI; UniProt P17726 1-60, looked up)”, the “clot lysis and acute reocclusion” value in assay [5] was “accelerate the recombinant tissue plasminogen activator mediated clot lysis and prevent acute reocclusion”. Also, the “thrombus mass and time to occlusion” value in assay [6] was “reduce thrombus mass and time to occlusion”. The fibrin deposition entry in assay [7] is “reduce fibrin deposition”.

B1: Antistasin: a potent inhibitor of blood coagulation factor Xa, from the Mexican leech Haementeria officinalis (protein, UniProt P15358 18-136, looked up)
Antistasin: QGPFGPGCEEAGCPEGSACNIITDRCTCSGVRCRMHCPHGFQRSRYGCEFCKCRLEPMKATCDISECPEGMMCSRLTNKCDCKIDINCRKTCPNGLKRDKLGCEYCECRPKRKLIPRLS
On to B1, for which the antithrombotic activity entry in assay [8] was “displays antithrombotic activity”.
